Legend:
Experiment in all cases: relative viability (nuclei count vs DMSO), 5 days (fraction); higher = more cells survive
[1] = compound: O=C(CCCCCCC(=O)Nc1ccccc1)NO [Vorinostat] + O=C(c1cc(Cc2n[nH]c(=O)c3ccccc23)ccc1F)N1CCN(C(=O)C2CC2)CC1 [Olaparib] (partner 8 µM)
Procedure, shortened: (§1)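 Each reported value is a median over duplicate plates. It expresses relative viability: treated-well nuclei count divided by vehicle-well nuclei count. Lung cancer cell lines in 1536-well plates were dosed by pin tool a day after seeding, alone with one drug or with a fixed anchor-drug dose plus five library-drug doses (not always all listed) in √10 steps, and nuclei were counted after 5 days.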

[2] = compound: O=C(CCCCCCC(=O)Nc1ccccc1)NO [Vorinostat] + Cc1nc(Nc2ncc(C(=O)Nc3c(C)cccc3Cl)s2)cc(N2CCN(CCO)CC2)n1 [Dasatinib] (partner 0.075 µM)
Procedure, shortened: as §1

[3] = compound: O=C(CCCCCCC(=O)Nc1ccccc1)NO [Vorinostat] + CC1(C)CCC(c2ccc(Cl)cc2)=C(CN2CCN(c3ccc(C(=O)NS(=O)(=O)c4ccc(N[C@H](CCN5CCOCC5)CSc5ccccc5)c(S(=O)(=O)C(F)(F)F)c4)cc3)CC2)C1 [Navitoclax] (partner 0.5 µM)
Procedure, shortened: as §1

[4] = compound: O=C(CCCCCCC(=O)Nc1ccccc1)NO [Vorinostat] + N=C(N)NC(=N)NCCc1ccccc1 [Phenformin] (partner 250 µM)
Procedure, shortened: as §1

[5] = compound: O=C(CCCCCCC(=O)Nc1ccccc1)NO [Vorinostat] + C[C@@H](Oc1cc(-c2cnn(C3CCNCC3)c2)cnc1N)c1c(Cl)ccc(F)c1Cl [Crizotinib] (partner 1 µM)
Procedure, shortened: as §1

Cell Line | relative viability ([1]; first compound 0.253 µM) | relative viability ([1]; first compound 0.8 µM) | relative viability ([1]; first compound 2.53 µM) | relative viability ([1]; first compound 8 µM) | relative viability ([2]; first compound 0.253 µM) | relative viability ([2]; first compound 0.8 µM) | relative viability ([2]; first compound 2.53 µM) | relative viability ([2]; first compound 8 µM) | relative viability ([3]; first compound 0.253 µM) | relative viability ([3]; first compound 0.8 µM) | relative viability ([3]; first compound 2.53 µM) | relative viability ([3]; first compound 8 µM) | relative viability ([4]; first compound 0.253 µM) | relative viability ([4]; first compound 0.8 µM) | relative viability ([4]; first compound 2.53 µM) | relative viability ([4]; first compound 8 µM) | relative viability ([5]; first compound 0.253 µM) | relative viability ([5]; first compound 0.8 µM) | relative viability ([5]; first compound 2.53 µM) | relative viability ([5]; first compound 8 µM)
RERF-LC-KJ | 0.826 | 0.715 | 0.228 | 0.266 | 0.817 | 0.543 | 0.212 | 0.24 | 1.25 | 0.754 | 0.251 | 0.291 | 0.453 | 0.394 | 0.284 | 0.288 | 0.813 | 0.744 | 0.448 | 0.156
NCI-H2347 | 0.575 | 0.633 | 0.401 | 0.241 | 0.283 | 0.295 | 0.271 | 0.189 | 0.933 | 0.714 | 0.238 | 0.16 | 0.46 | 0.351 | 0.19 | 0.2 | 0.793 | 0.715 | 0.379 | 0.283
NCI-H1792 | 0.235 | 0.218 | 0.0385 | 0.0192 | 0.866 | 0.921 | 0.402 | 0.126 | 0.763 | 0.601 | 0.392 | 0.0388 | 0.269 | 0.228 | 0.0757 | 0.0593 | 0.966 | 0.983 | 0.826 | 0.0888
HOP-62 | 0.468 | 0.35 | 0.16 | 0.0785 | 0.888 | 0.501 | 0.225 | 0.0813 | 0.969 | 0.779 | 0.215 | 0.0581 | 0.815 | 0.592 | 0.319 | 0.114 | 0.972 | 0.831 | 0.251 | 0.0671
NCI-H1650 | 0.737 | 0.62 | 0.316 | 0.16 | 0.397 | 0.292 | 0.201 | 0.141 | 1.12 | 0.851 | 0.385 | 0.144 | 0.412 | 0.393 | 0.164 | 0.14 | 0.848 | 0.519 | 0.29 | 0.101
NCI-H1666 | 0.669 | 0.755 | 0.512 | 0.475 | 0.881 | 0.698 | 0.422 | 0.266 | 0.845 | 0.652 | 0.322 | 0.235 | 0.591 | 0.474 | 0.398 | 0.306 | 0.788 | 0.713 | 0.244 | 0.22
HCC-78 | 0.778 | 0.615 | 0.221 | 0.201 | 0.371 | 0.398 | 0.211 | 0.2 | 0.711 | 0.324 | 0.15 | 0.116 | 0.719 | 0.58 | 0.292 | 0.22 | 0.319 | 0.229 | 0.117 | 0.137
BEN | 1.15 | 0.791 | 0.281 | 0.1 | 0.306 | 0.233 | 0.157 | 0.06 | 0.0469 | 0.0584 | 0.0602 | 0.0509 | 0.297 | 0.215 | 0.146 | 0.0911 | 1.06 | 0.553 | 0.147 | 0.0454
HCC-15 | 0.672 | 0.631 | 0.35 | 0.106 | 0.748 | 0.589 | 0.225 | 0.06 | 0.82 | 0.594 | 0.324 | 0.0877 | 0.609 | 0.473 | 0.22 | 0.0895 | 0.919 | 0.879 | 0.496 | 0.0884
NCI-H2009 | 0.729 | 0.582 | 0.395 | 0.0928 | 0.466 | 0.454 | 0.168 | 0.082 | 1.16 | 1.16 | 0.722 | 0.141 | 0.545 | 0.496 | 0.319 | 0.144 | 0.992 | 0.983 | 0.457 | 0.0597
UMC-11 | 0.374 | 0.235 | 0.0709 | 0.064 | 0.423 | 0.258 | 0.121 | 0.0971 | 0.277 | 0.154 | 0.0896 | 0.0856 | 0.325 | 0.199 | 0.123 | 0.115 | 0.578 | 0.481 | 0.0587 | 0.0369
HARA | 0.966 | 0.454 | 0.0979 | 0.0743 | 0.311 | 0.238 | 0.18 | 0.0565 | 1.17 | 1.16 | 0.606 | 0.086 | 0.443 | 0.364 | 0.231 | 0.0679 | 1.15 | 0.932 | 0.136 | 0.0954
LC-2-ad | 0.706 | 0.541 | 0.267 | 0.19 | 0.585 | 0.235 | 0.127 | 0.124 | 0.539 | 0.277 | 0.102 | 0.113 | 0.568 | 0.461 | 0.221 | 0.133 | 0.368 | 0.361 | 0.268 | 0.178
NCI-H1437 | 0.625 | 0.466 | 0.199 | 0.16 | 0.459 | 0.183 | 0.152 | 0.137 | 1.11 | 0.908 | 0.166 | 0.118 | 0.302 | 0.246 | 0.168 | 0.178 | 0.876 | 0.894 | 0.429 | 0.0993
NCI-H2126 | 0.885 | 0.905 | 0.391 | 0.196 | 0.608 | 0.566 | 0.216 | 0.158 | 0.834 | 0.756 | 0.489 | 0.211 | 0.525 | 0.495 | 0.244 | 0.177 | 0.961 | 1.01 | 0.538 | 0.203
NCI-H460 | 0.396 | 0.175 | 0.064 | 0.0336 | 0.577 | 0.423 | 0.134 | 0.0239 | 1.26 | 0.913 | 0.0765 | 0.0108 | 0.611 | 0.4 | 0.0276 | 0.016 | 1.05 | 0.336 | 0.0241 | 0.0093
CAL-12T | 0.82 | 0.824 | 0.532 | 0.138 | 0.481 | 0.471 | 0.269 | 0.0806 | 1.16 | 1.14 | 0.56 | 0.101 | 0.685 | 0.562 | 0.312 | 0.0876 | 0.901 | 0.443 | 0.207 | 0.0708
SK-LU-1 | 0.417 | 0.399 | 0.323 | 0.14 | 0.192 | 0.208 | 0.133 | 0.0924 | 0.785 | 0.528 | 0.109 | 0.111 | 0.658 | 0.549 | 0.285 | 0.123 | 0.921 | 0.672 | 0.43 | 0.164
NCI-H596 | 0.725 | 0.512 | 0.326 | 0.204 | 0.634 | 0.448 | 0.385 | 0.202 | 0.943 | 0.942 | 0.279 | 0.145 | 0.838 | 0.587 | 0.474 | 0.272 | 1.05 | 0.945 | 0.517 | 0.31
LCLC-97TM1 | 0.455 | 0.429 | 0.19 | 0.0482 | 0.914 | 0.68 | 0.365 | 0.226 | – | 0.298 | 0.289 | 0.0998 | 0.489 | 0.421 | 0.253 | 0.144 | – | 0.328 | 0.157 | 0.11
NCI-H1993 | 0.919 | 1.02 | 0.556 | 0.383 | 0.655 | 0.626 | 0.544 | 0.41 | 1 | 0.998 | 0.608 | 0.438 | 0.436 | 0.491 | 0.588 | 0.464 | 0.836 | 0.932 | 0.531 | 0.653
A-427 | 0.71 | 0.789 | 0.468 | 0.21 | 0.823 | 0.565 | 0.332 | 0.133 | 1.06 | 0.906 | 0.812 | 0.171 | 0.389 | 0.396 | 0.229 | 0.139 | 0.954 | 0.847 | 0.274 | 0.096
NCI-H2170 | 0.632 | 0.554 | 0.146 | 0.0982 | 0.68 | 0.459 | 0.355 | 0.14 | 0.706 | 0.481 | 0.216 | 0.172 | 0.481 | 0.394 | 0.384 | 0.164 | 1.29 | 0.967 | 0.229 | 0.149
NCI-H1915 | 0.231 | 0.175 | 0.113 | 0.0841 | 0.324 | 0.24 | 0.164 | 0.108 | 0.792 | 0.762 | 0.479 | 0.0857 | 0.38 | 0.341 | 0.181 | 0.0949 | 0.985 | 0.847 | 0.248 | 0.0881
NCI-H23 | 0.317 | 0.239 | 0.0822 | 0.084 | 0.922 | 0.671 | 0.41 | 0.0961 | 1.06 | 0.89 | 0.25 | 0.142 | 0.844 | 0.881 | 0.674 | 0.101 | 0.525 | 0.381 | 0.102 | 0.116
NCI-H727 | 0.682 | 0.745 | 0.525 | 0.401 | 0.486 | 0.423 | 0.262 | 0.206 | 0.433 | 0.506 | 0.241 | 0.196 | 0.964 | 0.395 | 0.478 | 0.255 | 0.962 | 0.687 | 0.299 | 0.214
EPLC-272H | 0.827 | 0.565 | 0.2 | 0.13 | 0.428 | 0.494 | 0.151 | 0.0935 | 0.984 | 1 | 0.242 | 0.0967 | 0.321 | 0.332 | 0.104 | 0.084 | 0.875 | 0.774 | 0.346 | 0.178
